From the NIST ThermoML archive (doi:10.1021/je020115d)
± gives the expanded uncertainty stated by the source.

Conditions: Liquid

FCF [difluoromethane]
Conditions	vapor or sublimation pressure [kPa]
283.19 K	1111 ± 2
288.21 K	1286 ± 2
293.24 K	1481 ± 3
298.26 K	1697 ± 3
303.27 K	1935 ± 3
308.28 K	2197 ± 4
313.3 K	2485 ± 4
318.28 K	2801 ± 5
323.3 K	3147 ± 5
328.31 K	3526 ± 6
343.26 K	4892 ± 8

CCC [propane]
Conditions	vapor or sublimation pressure [kPa]
277.17 K	536 ± 1
283.22 K	638 ± 2
288.26 K	734 ± 2
293.27 K	838 ± 2
298.3 K	955 ± 2
302.27 K	1055 ± 2
308.8 K	1236 ± 2
311.8 K	1326 ± 2
313.24 K	1370 ± 2
318.22 K	1537 ± 3
323.22 K	1716 ± 3
328.26 K	1911 ± 3
333.29 K	2120 ± 3
338.31 K	2346 ± 4
343.26 K	2591 ± 4
348.31 K	2852 ± 5
353.41 K	3134 ± 5
